“And” between values parts separate entries of the source, which are not always exact repeats. Equal values may be shown once.
Columns and labels:
Assay type in all cases: functional
[1] = Antifungal activity against Bipolaris oryzae was measured as mycelial growth at 0.1 mg/mL concentration
[2] = Antifungal activity against Bipolaris oryzae was measured as mycelial growth at 0.5 mg/mL concentration
Curvularia lunata [3] = assay: Antifungal activity against Curvularia lunata was measured as mycelial growth at 0.1 mg/mL concentration
Curvularia lunata [4] = assay: Antifungal activity against Curvularia lunata was measured as mycelial growth at 0.5 mg/mL concentration
Fusarium oxysporum [5] = assay: Antifungal activity against Fusarium oxysporum was measured as mycelial growth at 0.1 mg/mL concentration
Enterococcus faecalis [6] = assay: Antibacterial activity against […] was measured as area of inhibition zone at 0.1 mg/mL concentration
Staphylococcus aureus [7] = assay: Antibacterial activity against Staphylococcus aureus was measured as area of inhibition zone at 0.1 mg/mL concentration; conditions: for zone of inhibition at 100 µg/mL: Staphylococcus aureus
Pseudomonas aeruginosa [8] = assay: Antibacterial activity against Pseudomonas aeruginosa was measured as area of inhibition zone at 0.1 mg/mL concentration; conditions: for zone of inhibition at 100 µg/mL: Pseudomonas aeruginosa
Fusarium oxysporum [9] = assay: Antifungal activity against Fusarium oxysporum was measured as mycelial growth at 0.5 mg/mL concentration
Thanatephorus cucumeris [10] = assay: Antifungal activity against Rhizoctonia solani was measured as mycelial growth at 0.1 mg/mL concentration
Thanatephorus cucumeris [11] = assay: Antifungal activity against Rhizoctonia solani was measured as mycelial growth at 0.5 mg/mL concentration
Alternaria alternata [12] = assay: Antifungal activity against Alternaria alternata was measured as mycelial growth at 0.1 mg/mL concentration
Alternaria alternata [13] = assay: Antifungal activity against Alternaria alternata was measured as mycelial growth at 0.5 mg/mL concentration
[14] = Antifungal activity against Bipolaris oryzae was determined at 0.1 mg/mL concentration
[15] = Antifungal activity against Bipolaris oryzae was determined at 0.5 mg/mL concentration
Curvularia lunata [16] = assay: Antifungal activity against Curvularia lunata was determined at 0.1 mg/mL concentration
Curvularia lunata [17] = assay: Antifungal activity against Curvularia lunata was determined at 0.5 mg/mL concentration
Fusarium oxysporum [18] = assay: Antifungal activity against Fusarium oxysporum was determined at 0.1 mg/mL concentration
Fusarium oxysporum [19] = assay: Antifungal activity against Fusarium oxysporum was determined at 0.5 mg/mL concentration
Thanatephorus cucumeris [20] = assay: Antifungal activity against Rhizoctonia solani was determined at 0.1 mg/mL concentration
Thanatephorus cucumeris [21] = assay: Antifungal activity against Rhizoctonia solani was determined at 0.5 mg/mL concentration
Escherichia coli [22] = assay: Antibacterial activity against Escherichia coli was determined at 0.1 mg/mL concentration
Escherichia coli [23] = assay: Antibacterial activity against Escherichia coli was determined at 0.5 mg/mL concentration
Pseudomonas aeruginosa [24] = assay: Antibacterial activity against Pseudomonas aeruginosa was determined at 0.1 mg/mL concentration
Enterococcus faecalis [25] = assay: Antibacterial activity against […] was determined at 0.1 mg/mL concentration
Enterococcus faecalis [26] = assay: Antibacterial activity against […] was determined at 0.5 mg/mL concentration
Staphylococcus aureus [27] = assay: Antibacterial activity against Staphylococcus aureus was determined at 0.1 mg/mL concentration
Staphylococcus aureus [28] = assay: Antibacterial activity against Staphylococcus aureus was determined at 0.5 mg/mL concentration
Pseudomonas aeruginosa [29] = assay: Antibacterial activity against Pseudomonas aeruginosa was determined at 0.5 mg/mL concentration
Alternaria alternata [30] = assay: Antifungal activity against Alternaria alternata was determined at 0.1 mg/mL concentration
Alternaria alternata [31] = assay: Antifungal activity against Alternaria alternata was determined at 0.5 mg/mL concentration
[32] = Antibacterial activity against Escherichia coli was measured as area of inhibition zone at 0.1 mg/mL concentration; conditions: for zone of inhibition at 100 µg/mL: Escherichia coli

Compound	Mycelial growth [1] [cm]	Mycelial growth [2] [cm]	Mycelial growth (Curvularia lunata [3]) [cm]	Mycelial growth (Curvularia lunata [4]) [cm]	Mycelial growth (Fusarium oxysporum [5]) [cm]	zone of inhibition at 100 µg/mL (Enterococcus faecalis [6]) [mm]	Inhibition Zone (Staphylococcus aureus [7])	Mycelial growth (Fusarium oxysporum [9]) [cm]	Mycelial growth (Thanatephorus cucumeris [10]) [cm]	Mycelial growth (Thanatephorus cucumeris [11]) [cm]	Mycelial growth (Alternaria alternata [12]) [cm]	Mycelial growth (Alternaria alternata [13]) [cm]	inhibition at 100 µg/mL [14] [%]	inhibition at 500 µg/mL [15] [%]	inhibition at 100 µg/mL (Curvularia lunata [16]) [%]	inhibition at 500 µg/mL (Curvularia lunata [17]) [%]	inhibition at 100 µg/mL (Fusarium oxysporum [18]) [%]	inhibition at 500 µg/mL (Fusarium oxysporum [19]) [%]	inhibition at 100 µg/mL (Thanatephorus cucumeris [20]) [%]	inhibition at 500 µg/mL (Thanatephorus cucumeris [21]) [%]	other results
CCOC(=O)c1cn(-c2ccc([N+](=O)[O-])cc2[N+](=O)[O-])nc1-c1ccc(Cl)cc1	6.6	3.9	5.8	4.8	6.3	49	3.3 cm and 1.6 cm	4	9	7.2	5.4	4.2	26.7	56.7	35.6	46.7	30	55.6	0	20	zone of inhibition at 100 µg/mL (Pseudomonas aeruginosa [8]): 0 mm; inhibition at 100 µg/mL (Escherichia coli [22]): 0%; inhibition at 500 µg/mL (Escherichia coli [23]): 52.2%; inhibition at 100 µg/mL (Pseudomonas aeruginosa [24]): 0%; inhibition at 100 µg/mL (Enterococcus faecalis [25]): 0%; inhibition at 500 µg/mL (Enterococcus faecalis [26]): 54.4%; inhibition at 100 µg/mL (Staphylococcus aureus [27]): 17.8%; inhibition at 500 µg/mL (Staphylococcus aureus [28]): 36.7%; inhibition at 500 µg/mL (Pseudomonas aeruginosa [29]): 0%; inhibition at 100 µg/mL (Alternaria alternata [30]): 40%; inhibition at 500 µg/mL (Alternaria alternata [31]): 53.3%
CCOC(=O)c1cn(-c2ccc([N+](=O)[O-])cc2[N+](=O)[O-])nc1-c1ccccc1F	5.7	4.3	5	4	6	23	7.3 cm	5.3	9	8.2	4.2	3.4	36.7	52.2	44.4	55.6	33.3	41.1	0	8.9	zone of inhibition at 100 µg/mL (Staphylococcus aureus [7]): 42 mm; zone of inhibition at 100 µg/mL (Pseudomonas aeruginosa [8]): 0 mm; inhibition at 100 µg/mL (Escherichia coli [22]): 20%; inhibition at 500 µg/mL (Escherichia coli [23]): 56.7%; inhibition at 100 µg/mL (Pseudomonas aeruginosa [24]): 0%; inhibition at 100 µg/mL (Enterococcus faecalis [25]): 0%; inhibition at 500 µg/mL (Enterococcus faecalis [26]): 25.6%; inhibition at 100 µg/mL (Staphylococcus aureus [27]): 46.7%; inhibition at 500 µg/mL (Staphylococcus aureus [28]): 81.1%; inhibition at 500 µg/mL (Pseudomonas aeruginosa [29]): 0%; inhibition at 100 µg/mL (Alternaria alternata [30]): 53.3%; inhibition at 500 µg/mL (Alternaria alternata [31]): 62.2%
CCOC(=O)c1nn(-c2ccc([N+](=O)[O-])cc2[N+](=O)[O-])cc1C=O	3.5	2.3	5.6	3.5	4.3	86	7.7 cm	2.6	6.8	4.2	3.8	2.1	61.1	74.4	37.8	61.1	52.2	71.1	24.4	53.3	Inhibition Zone [32]: 7.5 cm and 8.8 cm; zone of inhibition at 100 µg/mL [32]: 73 mm; zone of inhibition at 100 µg/mL (Staphylococcus aureus [7]): 88 mm; inhibition at 100 µg/mL (Escherichia coli [22]): 81.1%; inhibition at 500 µg/mL (Escherichia coli [23]): 97.8%; inhibition at 100 µg/mL (Pseudomonas aeruginosa [24]): 0%; inhibition at 100 µg/mL (Enterococcus faecalis [25]): 83.3%; inhibition at 500 µg/mL (Enterococcus faecalis [26]): 95.6%; inhibition at 100 µg/mL (Staphylococcus aureus [27]): 85.6%; inhibition at 500 µg/mL (Staphylococcus aureus [28]): 97.8%; inhibition at 500 µg/mL (Pseudomonas aeruginosa [29]): 25.6%; inhibition at 100 µg/mL (Alternaria alternata [30]): 57.8%; inhibition at 500 µg/mL (Alternaria alternata [31]): 76.6%
CCOC(=O)c1cn(-c2ccc([N+](=O)[O-])cc2[N+](=O)[O-])nc1CCl	5.9	4.6	6	5.1	6.8	0	8.3 cm	4.6	9	8.5	6	4.8	34.4	48.9	33.3	43.3	24.4	48.9	0	5.6	zone of inhibition at 100 µg/mL (Staphylococcus aureus [7]): 69 mm; zone of inhibition at 100 µg/mL (Pseudomonas aeruginosa [8]): 0 mm; inhibition at 100 µg/mL (Escherichia coli [22]): 17.8%; inhibition at 500 µg/mL (Escherichia coli [23]): 51.1%; inhibition at 100 µg/mL (Pseudomonas aeruginosa [24]): 0%; inhibition at 100 µg/mL (Enterococcus faecalis [25]): 0%; inhibition at 500 µg/mL (Enterococcus faecalis [26]): 0%; inhibition at 100 µg/mL (Staphylococcus aureus [27]): 76.6%; inhibition at 500 µg/mL (Staphylococcus aureus [28]): 92.2%; inhibition at 500 µg/mL (Pseudomonas aeruginosa [29]): 0%; inhibition at 100 µg/mL (Alternaria alternata [30]): 33.3%; inhibition at 500 µg/mL (Alternaria alternata [31]): 46.7%
CCOC(=O)c1cn(-c2ccc([N+](=O)[O-])cc2[N+](=O)[O-])nc1-c1ccccc1	5.6	4.4	5.6	3.8	5.3	74	7.6 cm and 3.6 cm	3	8	6.6	5.5	3.8	37.8	51.1	37.8	57.8	41.1	66.7	11.1	26.6	Inhibition Zone [32]: 4.3 cm and 7.2 cm; zone of inhibition at 100 µg/mL [32]: 39 mm; Inhibition Zone (Pseudomonas aeruginosa [8]): 2.2 cm; zone of inhibition at 100 µg/mL (Pseudomonas aeruginosa [8]): 18 mm; inhibition at 100 µg/mL (Escherichia coli [22]): 43.3%; inhibition at 500 µg/mL (Escherichia coli [23]): 80%; inhibition at 100 µg/mL (Pseudomonas aeruginosa [24]): 20%; inhibition at 100 µg/mL (Enterococcus faecalis [25]): 47.8%; inhibition at 500 µg/mL (Enterococcus faecalis [26]): 82.2%; inhibition at 100 µg/mL (Staphylococcus aureus [27]): 40%; inhibition at 500 µg/mL (Staphylococcus aureus [28]): 84.4%; inhibition at 500 µg/mL (Pseudomonas aeruginosa [29]): 24.4%; inhibition at 100 µg/mL (Alternaria alternata [30]): 38.9%; inhibition at 500 µg/mL (Alternaria alternata [31]): 57.8%

From ChEMBL document CHEMBL1137069, “Design, synthesis and anti-microbial activity of 1H-pyrazole carboxylates” (2004)
